Literature values as cited in US20230096856A1, “COMBINED TREATMENT REGIMEN OF […]/SEDATION WITH ADMINISTRATION OF P[…] ASSOCIATED WITH REDUCTION IN NEUROP[…]” (priority 2021, published 2023).

Assays:
[1] = tested on: gamma-aminobutyric acid type A receptors; settings: acutely
AMPA receptor = settings: sub-anesthetic dose, animal studies
[2] = tested on: N-methyl-D-aspartate (NMDA) receptors
5-HT2A receptors = 5-HT2A receptors (Homo sapiens, UniProt P28223)
BDNF = settings: rats exposed to psychological stress
sigma-1 receptors [3] = tested on: sigma-1 receptors
Sigma-1 receptors [4] = biological target: Sigma-1 receptors (Homo sapiens, UniProt Q99720); settings: receptors that modulate immune responses in human monocyte-derived dendritic cells
Sequence of Sigma-1 receptors (Q99720 whole entry): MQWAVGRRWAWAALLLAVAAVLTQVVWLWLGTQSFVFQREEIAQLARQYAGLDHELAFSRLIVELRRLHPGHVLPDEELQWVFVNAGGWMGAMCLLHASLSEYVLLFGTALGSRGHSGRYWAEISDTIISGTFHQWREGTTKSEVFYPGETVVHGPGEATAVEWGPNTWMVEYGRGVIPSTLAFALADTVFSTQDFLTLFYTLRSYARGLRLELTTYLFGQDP

[5] = tested on: ventral dentate gyrus of the hippocampus; settings: single dose
[6] = tested on: hallucinogenic experience; settings: in vivo
tinnitus = settings: single dose, mice
[7] = tested on: extracellular glutamate levels; settings: rat models

Sequence of 5-HT2A receptors (P28223 whole entry): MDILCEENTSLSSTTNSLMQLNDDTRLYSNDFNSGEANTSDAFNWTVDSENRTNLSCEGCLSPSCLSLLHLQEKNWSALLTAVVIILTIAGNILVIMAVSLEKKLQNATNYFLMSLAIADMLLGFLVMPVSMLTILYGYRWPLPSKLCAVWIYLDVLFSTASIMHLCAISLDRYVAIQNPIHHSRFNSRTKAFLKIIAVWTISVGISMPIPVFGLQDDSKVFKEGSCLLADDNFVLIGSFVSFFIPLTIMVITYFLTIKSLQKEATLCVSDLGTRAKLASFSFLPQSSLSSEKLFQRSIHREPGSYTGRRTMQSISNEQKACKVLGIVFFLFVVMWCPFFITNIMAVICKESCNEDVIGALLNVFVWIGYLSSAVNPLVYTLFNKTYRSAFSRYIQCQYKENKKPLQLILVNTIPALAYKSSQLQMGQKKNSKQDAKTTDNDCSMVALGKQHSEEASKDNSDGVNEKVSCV

CC(C)c1cccc(C(C)C)c1O [propofol]
time after induction until desired SR>80% was reached (depression; EEG suppression ratio): About five | QIDS-SR scale scores (depression; after approximately four sessions (1 week), asymptote at approximately 7 sessions (two weeks)): significant reduction | average recovery time until oriented to time and place (depression; after eye opening): 5 to 10 min | cognitive side effects common for ECT (short term memory loss) (depression; in vivo): do not occur | effect on efficacy of ECT in treating depression (depression; in vivo): does not diminish the efficacy | period within which severity of self-report symptoms of moderate to severe depression is reduced (depression; in vivo): 1-2 weeks | time to state of unconsciousness upon induction (depression; in vivo): one | LTP induction [1]: inhibits long term potentiation (LTP) induction | expression of AMPA pGluR1 (AMPA receptor): increase the expression of AMPA pGluR1 in dose-dependent manner | speed and degree of glutamate-induced desensitization of the AMPA receptor in neurons (AMPA receptor): can decrease | inhibition of NMDA receptors [2]: does not induce inhibition

ibogaine
interaction with 5-HT2A receptors (5-HT2A receptors): interact minimally, indirectly, or not at all

O=C(c1ccc(F)cc1)C1CCN(CCn2c(=O)[nH]c3ccccc3c2=O)CC1 [ketanserin]
BDNF mRNA (BDNF): reducing the presence BDNF mRNA | immunoreactivity indicative of BDNF presence in brain areas (BDNF): inhibits BDNF immunoreactivity

COc1ccc2[nH]cc(CCN(C)C)c2c1 [5-MeO-DMT, 5-5-Methoxy-N,N-dimethyltryptamine]
IFNc and GM-CSF expression (sigma-1 receptors [3]): suppressing | secretion level of anti-inflammatory interleukin 10 cytokine (sigma-1 receptors [3]): increase the secretion level | PLA2 activation (phospholipase A2 (PLA2)): differentially strong phospholipase A2 (PLA2) activation | affinity for Sigma-1 receptors (Sigma-1 receptors [4]): functionally significant affinity | cell proliferation and neuronal survivability in the ventral dentate gyrus of the hippocampus [5]: stimulates cell proliferation and neuronal survivability | neurogenesis in the ventral dentate gyrus ([5]; adult mice): enhances neurogenesis | duration of acute hallucinogenic state [6]: 5 to 20 min | duration of hallucinogenic experience [6]: 10 to 20 min | mGluR5 regulation (human cerebral organoids): downregulation of mGluR5 | neural plasticity and anti-inflammatory activity (human cerebral organoids): potentiation of neural plasticity and elevated anti-inflammatory activity | tinnitus (tinnitus): can be reduced

CNC1(c2ccccc2Cl)CCCCC1=O (stereo not drawn) [ketamine]
extracellular glutamate levels in prefrontal-limbic circuitry [7]: increases extracellular glutamate levels

COC(=O)[C@@H]1C[C@H](OC(C)=O)C(=O)[C@H]2[C@@]1(C)CC[C@H]1C(=O)O[C@H](c3ccoc3)C[C@]21C [salvinorin A]
interaction with 5-HT2A receptors (5-HT2A receptors): interact minimally, indirectly, or not at all
